In patent US7132513B2, “Bifunctional chelating agent” (European Community, priority 2000, dated 2006):

How the values were obtained:
[1] = complexation properties with ^225Ac; format: physicochemical; settings: compared with non-functionalised chelating agents EDTA, DTPA, DOTA, PEPA, HEHA, EDTMP
Description: (§1) Different non-functionalised chelating agents (commercially available or readily synthesised in the laboratory) bearing aminocarboxylate groups (EDTA, DTPA, DOTA, PEPA, and HEHA) or aminophosphonate groups (EDTMP) were tested for their complexation properties with ^225Ac and ^213Bi. […] Polyaza polycarboxylic macrocycles are known to form thermodynamically stable complexes with large metal ions such as actinides and lanthanides.

[2] = complexation properties with ^213Bi; format: physicochemical; settings: non-functionalised chelating agents tested
Description: as §1

## O=C(O)CN1CCN(CC(=O)O)CCN(CC(=O)O)CCN(CC(=O)O)CCN(CC(=O)O)CCN(CC(=O)O)CC1 [HEHA, 1,4,7,10,13,16-hexacarboxylmethyl-1,4,7,10,13,16-hexaazacyclooctadecane]
[1]
  ^225Ac complexation: best candidate
[2]
  chelation of ^213Bi: good chelating agent
